# Measurements published in patent publication US20210093730A1, “BIOMARKERS FOR ANTIBODY-DRUG CONJUGATE MONOTHERAPY OR COMBINATION THERAPY” (Immunomedics, Inc., priority 2019, published 2021).
# Read-outs that look alike come from different tables or passages of the source.
# Columns and labels:
# [1] = tested on: MDA-MB-231 human breast cancer cells; details: cells with induced resistance to SN-38; cited from earlier work
# [2] = tested on: NCI-N87-S120 human gastric cancer cells; details: cells with induced resistance to SN-38; cited from earlier work
# [3] = tested on: NCI-N87-S120 xenografts; details: in combination with IMMU-132; cited from earlier work
# [4] = tested on: urothelial carcinoma; details: docetaxel-alone control arm; cited from earlier work
# [5] = tested on: advanced colorectal cancer; details: cited from earlier work
# [6] = tested on: platinum-resistant urothelial cancer; details: cited from earlier work
# [7] = tested on: TNBC xenografts; details: in combination with sacituzumab govitecan; independent of BRCA1/2 mutation status; cited from earlier work
# [8] = tested on: urothelial carcinoma; details: cited from earlier work
# [9] = tested on: SCLC; details: cited from earlier work
# [10] = tested on: SCLC; details: 28 patients; cited from earlier work
# [11] = tested on: metastatic colorectal cancer; details: cited from earlier work
# [12] = tested on: relapsed metastatic ovarian cancer; test: Therapy of relapsed metastatic ovarian cancer with IMMU-130 plus prexasertib (case, Example 7); details: one patient
# [13] = tested on: recurrent SCLC; details: cited from earlier work
molecule,measurement,setting,value
COc1ccc2c3c([nH]c2c1)[C@H](CC(C)C)N1C(=O)[C@H](CCC(=O)OC(C)(C)C)NC(=O)[C@@H]1C3 [Kol43],effect on toxicity of SN-38,[1],restored toxicity of SN-38
same,effect on toxicity of SN-38,[2],restored toxicity of SN-38
CCN(CC)CC(=O)OC1CCN(c2ccc(/C=C(\C#N)c3ccc(OC)c(OC)c3)s2)CC1.CS(=O)(=O)O [YHO-13351],effect on toxicity of SN-38,[1],restored toxicity of SN-38
same,median survival of mice,[3],increased median survival
same,effect on toxicity of SN-38,[2],restored toxicity of SN-38
CC(=O)O[C@@]12CO[C@@H]1C[C@H](O)[C@@]1(C)C(=O)[C@H](O)C3=C(C)[C@@H](OC(=O)[C@H](O)[C@@H](NC(=O)OC(C)(C)C)c4ccccc4)C[C@@](O)([C@@H](OC(=O)c4ccccc4)[C@H]21)C3(C)C [docetaxel],progression-free survival,[4],10.4 weeks
same,response rate,[4],5%
COc1ccc2c3c([nH]c2c1)[C@H](C=C(C)C)N1C(=O)[C@@H]2CCCN2C(=O)[C@@H]1C3 [fumitremorgin C],effect on toxicity of SN-38,[1],restored toxicity of SN-38
same,effect on toxicity of SN-38,[2],restored toxicity of SN-38
CCc1c2c(nc3ccc(OC(=O)N4CCC(N5CCCCC5)CC4)cc13)-c1cc3c(c(=O)n1C2)COC(=O)[C@]3(O)CC [irinotecan],response to irinotecan,[5]; TDP1 IVS12+79 G/G genotype,64%
same,response to irinotecan,[5]; TDP1 IVS12+79 T/T genotype,25%
same,incidence of grade 3/4 neutropenia,[5]; TOP1 IVS4+61 A/A genotype (small sample size),50%
same,incidence of grade 3/4 neutropenia,[5]; TOP1 IVS4+61 G/G genotype,8%
same,overall response rate,[6]; 95% confidence interval 1%-17%,5%
same,duration of a complete response,"[6]; human, in vivo",33 months
same,overall survival,"[6]; human, in vivo",5.4 months
O=C(c1cc(Cc2n[nH]c(=O)c3ccccc23)ccc1F)N1CCN(C(=O)C2CC2)CC1 [olaparib],effect on tumor growth,[7],synergistic inhibition of tumor growth
Nc1nc2[nH]cc(CCc3ccc(C(=O)N[C@@H](CCC(=O)O)C(=O)O)cc3)c2c(=O)[nH]1 [pemetrexed],objective response rate,[8]; 95% confidence interval 1%-9%,5%
same,median progression-free survival,[8]; in vivo,2.4 months
CNCc1ccc(-c2[nH]c3cc(F)cc4c3c2CCNC4=O)cc1 [rucaparib],effect on tumor growth,[7],synergistic inhibition of tumor growth
Cn1ncnc1[C@H]1c2n[nH]c(=O)c3cc(F)cc(c23)N[C@@H]1c1ccc(F)cc1 [talazoparib],effect on tumor growth,[7],synergistic inhibition of tumor growth
CC[C@@]1(O)C(=O)OCc2c1cc1n(c2=O)Cc2cc3c(CN(C)C)c(O)ccc3nc2-1 [topotecan],objective response rate,[9]; chemoresistant frontline patients,5%
same,objective response rate,[9]; chemosensitive patients,17%
same,grade >=3 anemia,[9]; in vivo,24%
same,grade >=3 neutropenia,[9]; in vivo,69%
same,grade >=3 thrombocytopenia,[9]; in vivo,1%
same,patients who died from this chemotherapy,[9]; in vivo,approximately 2%
same,PR,[10],11%
same,median survival,[10],5 months
same,one-year survival,[10],3.5%
labetuzumab govitecan,patients with a reduction in tumor size and plasma CEA levels,[11]; 72 assessable patients,38%
same,patients with partial response,[11]; 72 assessable patients,One
same,patients with stable disease,[11]; 72 assessable patients,42 patients
same,median OS,"[11]; human, in vivo",6.9 months
same,median PFS,"[11]; human, in vivo",3.6 months
same,response by RECIST criteria,[12]; IMMU-130 10 mg/kg plus prexasertib 105 mg/m^2,partial response
same,decrease of the sum of the diameters of the index lesions,[12]; IMMU-130 plus prexasertib,45%
same,toxicity,[12]; IMMU-130 plus prexasertib,transient grade 2 neutropenia and some initial diarrhea
nivolumab: anti-PD1 checkpoint inhibitor antibody,disease-control rate,[13]; combination with ipilimumab,32%
same,response rate,[13]; nivolumab alone,10%
